Assays:
Canis familiaris [1] = assay: Concentration that causes a 20% increase in APD95 (action potential duration at 95% repolarization) from control value in anesthetized dogs; type: functional, Canis lupus familiaris
[2] = molecular target: Adrenergic receptor beta (Canis lupus familiaris); assay: Tested for beta-receptor binding inhibition from canine ventricular tissue, using [3H]dihydroalprenolol as the radioligand in anesthetized dogs
Canis familiaris [3] = assay: Concentration at which maximum change in […] was observed from control value in anesthetized dogs; The maximum observed change APD95 from control value and concentration at 30 uM when this occurred; type: functional, Canis lupus familiaris
Canis familiaris [4] = assay: Maximum change in […] from control value in anesthetized dogs; 10 uM.; type: functional, Canis lupus familiaris
[5] = molecular target: T1, Beta-2 adrenergic receptor (Canis lupus familiaris, UniProt P54833); assay: Beta2-receptor selectivity in canine lung tissue in anesthetized dogs; type: functional
[6] = molecular target: Beta-1 adrenergic receptor (Canis lupus familiaris); assay: Tested for beta1-receptor selectivity in canine cardiac tissue in anesthetized dogs
[7] = molecular target: Beta-1 adrenergic receptor (Canis familiaris)
Canis familiaris [8] = assay: Concentration at which maximum change in […] was observed from control value in anesthetized dogs; The maximum observed change APD95 from control value and concentration at 1 uM when this occurred; type: functional, Canis lupus familiaris
[9] = molecular target: Beta adrenergic receptor (Canis familiaris)
Canis familiaris [10] = assay: Percent change in blood pressure (BP) from control at active dose 30 mg/kg administered intraperitoneally in anesthetized dogs; type: functional, Canis lupus familiaris; conditions: route intraperitoneal
[11] = Ratio of number of active animals to number of treated at dose 30 mg/kg administered intraperitoneally in anesthetized dogs; No of animals tested=4; conditions: route intraperitoneal
Canis familiaris [12] = assay: Percent change in FRP from control at active dose 30 mg/kg administered intraperitoneally in anesthetized dogs; type: functional, Canis lupus familiaris; conditions: route intraperitoneal
Canis familiaris [13] = assay: Percent change in heart rate (HR) from control at active dose 30 mg/kg administered intraduodenally; conditions: route intraduodenal
Canis familiaris [14] = assay: Percent change in heart rate (HR) from control at active dose 1.0-10 mg/kg administered intraperitoneally in anesthetized dogs; type: functional, Canis lupus familiaris
Canis familiaris [15] = assay: Percent change in heart rate (HR) from control at active dose 10 mg/kg administered intraduodenally; conditions: route intraduodenal
[16] = molecular target: T1, Beta-2 adrenergic receptor
Description: Tested for Beta-2 adrenergic receptor selectivity in canine lung tissue in anesthetized dogs

Canis familiaris [17] = assay: Percent change in FRP from control at active dose 10 mg/kg administered intraperitoneally in anesthetized dogs; type: functional, Canis lupus familiaris; conditions: route intraperitoneal
[18] = Ratio of number of active animals to number of treated at dose 1.0-10 mg/kg administered intraperitoneally in PES model in anesthetized dogs; 3/5; type: functional
Canis familiaris [19] = assay: Percent change in FRP from control at active dose 1.0-10 mg/kg administered intraperitoneally; type: functional, Canis lupus familiaris
Canis familiaris [20] = assay: Percent change in blood pressure (BP) from control at active dose 1.0-10 mg/kg administered intraperitoneally in anesthetized dogs; type: functional, Canis lupus familiaris
Canis familiaris [21] = assay: Percent change in blood pressure (BP) from control at active dose 10 mg/kg administered intraperitoneally in anesthetized dogs; type: functional, Canis lupus familiaris; conditions: route intraperitoneal
Canis familiaris [22] = assay: Concentration at which maximum change in […] was observed from control value in anesthetized dogs; The maximum observed change APD95 from control value and concentration at 100 uM when this occurred; type: functional, Canis lupus familiaris
[23] = Ratio of number of active animals to number of treated at dose 30 mg/kg administered intraperitoneally in anesthetized dogs; No of animals tested=2; type: functional; conditions: route intraperitoneal
Canis familiaris [24] = assay: Percent change in FRP from control at active dose 1.0-10 mg/kg administered intravenously
Canis familiaris [25] = assay: Percent change in heart rate (HR) from control at active dose 1.0-10 mg/kg administered intravenously in conscious dogs
Canis familiaris [26] = assay: Percent change in FRP from control at active dose 10-30 mg/kg administered intraperitoneally in anesthetized dogs; type: functional, Canis lupus familiaris
[27] = Ratio of number of active animals to number of treated at dose 10-30 mg/kg administered intraperitoneally in anesthetized dogs; No of animals tested=2; type: functional
Canis familiaris [28] = assay: Percent change in blood pressure (BP) from control at active dose 10-30 mg/kg administered intraperitoneally in anesthetized dogs; type: functional, Canis lupus familiaris
Canis familiaris [29] = assay: Percent change in heart rate (HR) from control at active dose 10-30 mg/kg administered intraduodenally
[30] = Ratio of number of active animals to number of treated in anesthetized dogs; No of animals tested=2; type: functional

T1 sequence (P54833 whole entry): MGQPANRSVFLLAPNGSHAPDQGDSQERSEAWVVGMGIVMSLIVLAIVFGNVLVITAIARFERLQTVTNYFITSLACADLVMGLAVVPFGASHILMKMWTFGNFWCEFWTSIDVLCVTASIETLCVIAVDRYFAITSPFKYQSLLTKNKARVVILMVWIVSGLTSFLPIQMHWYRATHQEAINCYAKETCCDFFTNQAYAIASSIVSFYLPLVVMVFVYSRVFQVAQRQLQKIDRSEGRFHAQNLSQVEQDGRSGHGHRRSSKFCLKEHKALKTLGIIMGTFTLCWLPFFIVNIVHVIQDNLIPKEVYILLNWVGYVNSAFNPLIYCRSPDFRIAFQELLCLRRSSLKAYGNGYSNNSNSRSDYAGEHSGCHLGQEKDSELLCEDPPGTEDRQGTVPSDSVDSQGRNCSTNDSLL

Q: With `COc1ccccc1C(O)CNCCOc1ccc(-n2ccnc2)cc1` (configuration not stated) as the compound, how does the “C20 APD95” value (Canis familiaris [1]) read?
A: 10.4 µM

Q: And the IC50 [2]?
A: 3.7 µM

Q: And the Max delta (Canis familiaris [3])?
A: 33%

Q: With `OC(CNCCOc1ccc(-n2ccnc2)cc1)COc1ccccc1` (configuration not stated) as the compound, how does the “C20 APD95” value (Canis familiaris [1]) read?
A: 8.8 µM

Q: What about the IC50 [2] of the same compound?
A: 0.04 µM

Q: And the Max delta (Canis familiaris [4])?
A: 21%

Q: And the IC50 [5]?
A: 0.28 µM

Q: What about the IC50 [6] of the same compound?
A: 0.04 µM

Q: Which results are given for `CS(=O)(=O)Nc1ccc(OCC(O)CNCc2ccc(-n3ccnc3)cc2)cc1` (configuration not stated)?
A: C20 (Canis familiaris [1]): 1.8 µM; IC50 [7]: 33.1 µM; Max delta (Canis familiaris [3]): 67%

Q: For `CS(=O)(=O)Nc1ccc(N2CCN(CC(O)COc3ccccc3)CC2)cc1` (configuration not stated), which C20 (Canis familiaris [1]) is on record?
A: 2.7 µM

Q: And the Max delta (Canis familiaris [8])?
A: 52%

Q: What about the IC50 [9] of the same compound?
A: 15.8 µM

Q: What about the Change (Canis familiaris [10]) of the same compound?
A: -17%

Q: What about the Ratio [11] of the same compound?
A: 1

Q: And the Change (Canis familiaris [12])?
A: 14%

Q: What about the Change (Canis familiaris [13]) of the same compound?
A: -7%

Q: For `Cc1cccc(OCC(O)CN2CCN(c3ccc(NS(C)(=O)=O)cc3)CC2)c1` (configuration not stated), which C20 (Canis familiaris [1]) is on record?
A: <1 µM

Q: And the Change (Canis familiaris [14])?
A: 18%

Q: What about the Change (Canis familiaris [15]) of the same compound?
A: -21%

Q: And the Max delta (Canis familiaris [4])?
A: 55%

Q: And the IC50 [16]?
A: 49.3 µM

Q: And the Change (Canis familiaris [17])?
A: 17%

Q: And the No. effective [18]?
A: 3

Q: And the Change (Canis familiaris [19])?
A: 13%

Q: What about the Change (Canis familiaris [20]) of the same compound?
A: -1%

Q: What about the Change (Canis familiaris [21]) of the same compound?
A: 13%

Q: For `CS(=O)(=O)Nc1ccc(OCC(O)CNCCNC(=O)c2ccc(-n3ccnc3)cc2)cc1` (configuration not stated), which C20 (Canis familiaris [1]) is on record?
A: 5.8 µM

Q: And the Max delta (Canis familiaris [22])?
A: 58%

Q: What about the Ratio [23] of the same compound?
A: 1

Q: What about the IC50 [9] of the same compound?
A: 227 µM

Q: And the Change (Canis familiaris [10])?
A: 30%

Q: And the Change (Canis familiaris [12])?
A: 14%

Q: And the Change (Canis familiaris [13])?
A: -18%

Q: For `OC(CNCCOc1ccc(-n2ccnc2)cc1)CONC(C1CC1)C1CC1` (configuration not stated), which “C20 APD95” value (Canis familiaris [1]) is on record?
A: 1.5 µM

Q: What about the IC50 [2] of the same compound?
A: 0.3 µM

Q: What about the Change (Canis familiaris [15]) of the same compound?
A: -18%

Q: What about the Max delta (Canis familiaris [4]) of the same compound?
A: 87%

Q: What about the Change (Canis familiaris [17]) of the same compound?
A: 20%

Q: What about the Change (Canis familiaris [24]) of the same compound?
A: 3%

Q: And the Change (Canis familiaris [25])?
A: -13%

Q: What about the Change (Canis familiaris [20]) of the same compound?
A: -5%

Q: What about the Change (Canis familiaris [21]) of the same compound?
A: 2%

Q: For `CC(=O)Nc1ccc(OCC(O)CN2CCN(c3ccc(NS(C)(=O)=O)cc3)CC2)cc1` (configuration not stated), which C20 (Canis familiaris [1]) is on record?
A: 42 µM

Q: And the Max delta (Canis familiaris [22])?
A: 39%

Q: And the IC50 [9]?
A: 293 µM

Q: What does the source list for `CS(=O)(=O)Nc1ccc(C(=O)N2CCN(CC(O)COc3ccccc3)CC2)cc1` (configuration not stated)?
A: C20 (Canis familiaris [1]): <1 µM; Max delta (Canis familiaris [4]): 88%; IC50 [9]: 12.2 µM

Q: With `CCN(CC)CCNC(=O)c1ccc(NS(C)(=O)=O)cc1` [SEMATILIDE] as the compound, how does the C20 (Canis familiaris [1]) read?
A: 4.4 µM

Q: And the Max delta (Canis familiaris [22])?
A: 65%

Q: With `COCCc1ccc(OCC(O)CNCCOc2ccc(-n3ccnc3)cc2)cc1` (configuration not stated) as the compound, how does the “C20 APD95” value (Canis familiaris [1]) read?
A: 14.8 µM

Q: And the Max delta (Canis familiaris [22])?
A: 89%

Q: What about the IC50 [5] of the same compound?
A: 4.5 µM

Q: With `CS(=O)(=O)Nc1ccc(C(=O)N2CCN(CC(O)COc3cccc4ccccc34)CC2)cc1` (configuration not stated) as the compound, how does the C20 (Canis familiaris [1]) read?
A: 0.5 µM

Q: And the Change (Canis familiaris [26])?
A: 19%

Q: And the Max delta (Canis familiaris [4])?
A: 55%

Q: What about the IC50 [9] of the same compound?
A: 30.9 µM

Q: And the No. effective [27]?
A: 2

Q: And the Change (Canis familiaris [28])?
A: 5%

Q: What about the Change (Canis familiaris [29]) of the same compound?
A: -25%

Q: Which Max delta (Canis familiaris [3]) does the source give for `CS(=O)(=O)Nc1ccc(OC[C@H](O)CNCCOc2ccc(-n3ccnc3)cc2)cc1` here?
A: 73%

Q: Which C20 (Canis familiaris [1]) does the source give for `CS(=O)(=O)Nc1ccc(CNCC(O)COc2ccccc2)cc1` (configuration not stated) here?
A: <1 µM

Q: And the Max delta (Canis familiaris [4])?
A: 40%

Q: And the IC50 [9]?
A: 2.9 µM

Q: What about the Ratio [30] of the same compound?
A: 0
